Measurements from paper PMC10683014, “Amino Acids as Chelating Ligands for Platinum: Enhanced Stability in an Aqueous Environment Promoted by Biocompatible Molecules” (Journal of Medicinal Chemistry, 2023).

What was measured:
[1] = tested on: HT-29 colon carcinoma cell line; assay: MTT metabolic activity (cytotoxicity) assay, HT-29; format: cell-based; details: 72 h incubation
Protocol: (§1) In order to determine the antitumor activity of the platinum complexes, in vitro cytotoxicity tests were performed. Compounds 1–4 were tested with cisplatin as a reference on the breast cancer cell line MCF-7 and the colon carcinoma cell line HT-29. Complexes 1, 4, and 5, as well as the ligand (but-3-en-1-yl 2-acetoxybenzoate, 6) were additionally evaluated on MDA-MB-231 cells and A2780cis cells, also using cisplatin as a reference. The metabolic activity as an indicator of cytotoxicity was determined by a classical 3-(4,5-dimethylthiazol-2-yl)-2,5-diphenyltetrazoliumbromid (MTT) assay.
(§2) The cell lines A2780cis and MDA-MB-231 were cultivated in RPMI 1640 without phenol red (PAN Biotech, Aidenbach, Germany), supplemented with L-glutamine (2 mM), 100 μg/mL penicillin, 100 μg/mL streptomycin, and FCS (10%) (all from Invitrogen Corporation, Gibco, Paisley, Scotland) at 37 °C in a 5% CO2/95% air atmosphere, and passaged twice per week. To maintain resistance, A2780cis cells were incubated every second week with cisplatin (1 μM). The cell lines MCF-7 and HT-29 were grown in DMEM without phenol red (PAN Biotech, Aidenbach, Germany), containing L-glutamine, 100 μg/mL penicillin, 100 μg/mL streptomycin, sodium pyruvate ([…]) (PAN Biotech), and FCS (10%) under the same conditions as the other cell lines.
(§3) The exponentially growing cell lines were seeded at a density of 2000 cells/well for MCF-7 cells, 4000 cells/well for HT-29 cells and MDA-MB-231 cells, and 8000 cells/well for A2780cis cells, respectively, into clear flat-bottom 96-well plates in triplicates. Following 24 h of incubation for adherence at 37 °C in a humidified atmosphere (5% CO2/95% air), the compounds were added to reach the desired concentrations between 10 and 100 μM, respectively. All stock solutions were prepared in dimethylformamide at a concentration of 100 mM and were then diluted with the respective cell-culture medium to the appropriate concentrations. After another 72 h of incubation, the cellular metabolic activity was measured by employing a MTT assay. Hereby, the yellow tetrazolium salt is converted to a purple formazan salt by the functioning mitochondria. These purple crystals are then dissolved in DMSO and can be quantified via absorption measurements at 570 and 420 nm. The optical density of the particular medium was subtracted in order to exclude the unspecific staining caused by the FCS-containing medium. The values were calculated with Excel 2019 (Microsoft, Redmond, WA, USA) using nonlinear regression and the decal logarithm of the inhibitor versus variable slope equation, while the top constraint was set to 100%.

[2] = tested on: A2780cis ovarian carcinoma cell line (cisplatin-resistant); assay: MTT metabolic activity (cytotoxicity) assay, A2780cis; format: cell-based; details: for IC50: MTT, 72 h incubation; for metabolic activity (residual) on A2780cis: 25 μM, without compounds set at 100%
Protocol: as §1, §2, §3

[3] = tested on: MCF-7 breast cancer cell line; assay: MTT metabolic activity (cytotoxicity) assay, MCF-7; format: cell-based; details: 72 h incubation
Protocol: as §1, §2, §3

[4] = target: T1, human recombinant COX-2 (Homo sapiens, UniProt P35354); assay: COX-2 inhibition, enzyme immunoassay (COX Inhibitor Screening Assay); format: biochemical; details: 2 min incubation
T1 construct: purchased Cayman Chemicals
T1 sequence (P35354 18-604): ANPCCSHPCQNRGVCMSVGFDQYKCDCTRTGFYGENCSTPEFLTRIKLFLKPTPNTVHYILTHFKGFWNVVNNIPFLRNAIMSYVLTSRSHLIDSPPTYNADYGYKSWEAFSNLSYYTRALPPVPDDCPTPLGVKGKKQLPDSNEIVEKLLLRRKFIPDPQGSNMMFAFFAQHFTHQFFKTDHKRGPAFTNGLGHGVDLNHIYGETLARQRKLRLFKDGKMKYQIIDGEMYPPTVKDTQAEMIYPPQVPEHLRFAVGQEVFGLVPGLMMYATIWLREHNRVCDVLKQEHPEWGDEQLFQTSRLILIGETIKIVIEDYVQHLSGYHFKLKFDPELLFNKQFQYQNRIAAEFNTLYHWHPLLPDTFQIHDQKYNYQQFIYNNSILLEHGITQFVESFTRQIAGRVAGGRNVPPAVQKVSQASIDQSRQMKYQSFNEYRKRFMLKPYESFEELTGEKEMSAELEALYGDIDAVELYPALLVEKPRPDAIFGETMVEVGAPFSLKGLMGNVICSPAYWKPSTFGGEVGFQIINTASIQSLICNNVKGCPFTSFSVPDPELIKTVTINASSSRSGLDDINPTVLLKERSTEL
Protocol: Metal complexes containing an ASA moiety have been reported as inhibitors for COX-1/-2 previously.[4],[14],[40]−[44] […] Hereby, the isolated enzymes were treated with final concentrations of 10 and 25 μM of substances 1, 4, 5, and 6.
Inhibition of the isolated human recombinant COX-1 and COX-2 isoenzymes by the platinum complexes (10 and 25 μM) was evaluated using an enzyme immunoassay (EIA) (COX Inhibitor Screening Assay, Cayman Chemicals, Ann Arbor, Mi, USA) following the manufacturer’s protocol. The incubation time of the compounds with the respective isoenzymes was exactly 2 min. The results are presented as the mean ± SD of three independent experiments with two replicates of each experiment. The untreated control was set at 0% inhibition of the COX activity.

[5] = target: T2, human recombinant COX-1 (Homo sapiens, UniProt P23219); assay: COX-1 inhibition, enzyme immunoassay (COX Inhibitor Screening Assay); format: biochemical; details: 2 min incubation
T2 construct: purchased Cayman Chemicals
Protocol: The incubation time of the compounds with the respective isoenzymes was exactly 2 min. The results are presented as the mean ± SD of three independent experiments with two replicates of each experiment.

[6] = Lipophilicity estimate from MEKC experiments (buffer/micelle partition); format: physicochemical; details: three independent experiments (one for 5 and 6)
Protocol: The lipophilicity of the tested compounds was estimated on the basis of MEKC experiments similar to Herbert and Dorsey[37] (see Table 7). The values estimated in this way were compared with theoretical values obtained from two different methods: for platinum complexes, a previously established method[38] was used, while for the organic ligand, the Osiris Property Explorer[39] was employed.
(§4) A solution of sodium tetraborate (final borate concentration of 50 mM) and sodium dodecyl sulfate (100 mM) was used as a background electrolyte (BGE). The pH of the BGE was adjusted to 9.3 by titration with 1 M NaOH. Every new capillary was rinsed with 1 M NaOH (45 min), water (45 min), and BGE (45 min) before the first use. The capillary was kept on a constant temperature of 25 °C, whereas the sample carousel was temperature-controlled at 37 °C. Sample injection was performed in hydrodynamic mode, applying a pressure of 50 mbar for 2 s on the inlet vial. The separation voltage was set at +20 kV. If not stated differently, a wavelength of 195 nm was employed for the DAD detector. The analytic window was evaluated by using dodecaphenone as a micellar marker and methanol (HPLC grade) as an electroosmotic flow (EOF) marker. The run time required for the analysis was estimated to be 25 min. The capillary was flushed before every run with 0.1 M NaOH (3 min), water (3 min), and BGE (5 min). Every value is calculated from at least three independent measurements. The half-lives were presented as the mean ± standard deviation. All of the samples, buffers, and washing solutions were membrane-filtered (0.22 μm pore size). All samples employed for stability experiments were prepared using benzoic acid as an internal standard (IS).

[7] = Stability in aqueous solution followed by capillary electrophoresis; format: physicochemical; details: for half-life time (τ1/2) in water: samples at 37 °C
Protocol: The stability of complexes 1–4 was tested in an aqueous solution, to investigate how the different ways of amino acid coordination impacts aqueous degradation (see Table 4). The stability of complex 5 was previously measured in a 50% methanolic solution.[4]
as §4

[8] = Solubility in water (qualitative observation); format: physicochemical
Protocol: Complex 1 was synthesized using the procedure reported by Fujita et al.,[20] and cubic bright-yellow crystals were obtained within hours. […] When a slightly lower concentration was used (0.4 mmol of platinum precursor instead of 0.5 mmol), keeping the amount of solvent constant, no crystallization occurred within a short time (3–4 h). However, some colorless needle-shaped crystals formed after an extended period of time (5–6 weeks). The crystals obtained from both conditions were analyzed via single-crystal X-ray diffractometry.
However, the release of olefin in an aqueous environment was detected to an extent of about 20% after 72 h. The chelating amino acid enhances the stability of complex 4 (>72 h) in comparison to compound 5 (69.6 ± 3.0 h).

[9] = tested on: MDA-MB-231 breast cancer cell line; assay: MTT metabolic activity (cytotoxicity) assay, MDA-MB-231; format: cell-based; details: for IC50: MTT, 72 h incubation; for metabolic activity (residual) on MDA-MB-231: 25 μM, without compounds set at 100%
Protocol: as §1, §2, §3

[10] = Stability in concentrated trimethylglycine (TMG) aqueous solution followed by capillary electrophoresis; format: physicochemical; details: dissolved in 50% w/v TMG, diluted to final TMG 25%; CE at 230 nm
Text: Kadokawa et al.[35] reported that a highly concentrated solution of trimethyl glycine (TMG, also known as betaine) is able to improve the solubility of cisplatin in water without affecting the pharmacological proprieties of this drug. The mechanism behind this effect seems to lie in the hydrogen bond acceptor property of the carboxylate of TMG, which establishes hydrogen bonds with the amino groups of cisplatin. Betaine is a nontoxic compound and is highly soluble in water. On the basis of this study, we decided to test the solubility of 3 in a highly concentrated (50% w/v) TMG aqueous solution. The platinum compound was soluble enough to allow investigations with the established protocol for capillary electrophoresis. TMG has a strong absorption at low wavelengths, and therefore, a wavelength of 230 nm was chosen instead of 195 nm for recording the electropherograms with TMG.
as §4

[11] = cited from earlier work

T2 sequence (P23219 24-599): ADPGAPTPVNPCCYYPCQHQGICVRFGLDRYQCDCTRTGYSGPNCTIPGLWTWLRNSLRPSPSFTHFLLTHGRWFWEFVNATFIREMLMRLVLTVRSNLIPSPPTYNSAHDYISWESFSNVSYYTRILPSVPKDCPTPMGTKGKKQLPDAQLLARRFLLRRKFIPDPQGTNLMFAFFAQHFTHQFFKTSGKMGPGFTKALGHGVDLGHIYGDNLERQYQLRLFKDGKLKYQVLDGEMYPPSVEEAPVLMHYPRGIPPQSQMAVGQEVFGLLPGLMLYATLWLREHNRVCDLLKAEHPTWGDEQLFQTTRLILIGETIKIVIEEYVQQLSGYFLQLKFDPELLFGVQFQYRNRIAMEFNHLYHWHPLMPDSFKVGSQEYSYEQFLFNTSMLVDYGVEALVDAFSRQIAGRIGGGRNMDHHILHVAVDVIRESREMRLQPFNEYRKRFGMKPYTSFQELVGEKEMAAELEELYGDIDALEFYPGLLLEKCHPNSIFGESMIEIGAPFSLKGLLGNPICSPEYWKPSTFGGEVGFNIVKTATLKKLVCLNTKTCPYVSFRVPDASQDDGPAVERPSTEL

Compound	IC50 [1] [µM]	IC50 [2] [µM]	IC50 [3] [µM]	% Inhibition COX-2 ([4]; 10 μM) [%]	% Inhibition COX-2 ([4]; 25 μM) [%]	% Inhibition COX-1 ([5]; 10 μM) [%]	% Inhibition COX-1 ([5]; 25 μM) [%]	coefficient of partition between buffer and micelles (k′), average [6]	IC50 [9] [µM]	half-life time (τ1/2) in TMG solution [10] [h]	other results
C=C.C[C@H](N)C(=O)[O][Pt][Cl] [1a, (Ethylene,N-trans)(L-alaninato-N,O)chlorido(η^2-ethene)platinate(II)]	> 100	> 50	> 100	27.23	52.36 ± 4.02	43.67 ± 3.87	73.82 ± 5.60	0.629 ± 0.009	> 50	24.3 ± 2.6	half-life time (τ1/2) in water ([7]; CE): >72 h; solubility in water (in words) [8]: moderately soluble in water
C=C.NCCC(=O)[O][Pt][Cl] [2b, (Ethylene,O-trans)(β-alaninato-N,O)chlorido(η^2-ethene)platinate(II)]	> 100	–	> 100	–	–	–	–	3.099 ± 0.149	–	0.77 ± 0.08	half-life time (τ1/2) in water ([7]; CE): 1.7 ± 0.2 h
CC(=O)Oc1ccccc1C(=O)O [ASA, acetylsalicylic acid, reference compound]	–	–	–	–	–	–	–	–	–	–	inhibition at 10 µM ([4]; 10 μM): 9.33%; inhibition at 10 µM ([5]; 10 μM): 17.3%
C=C.[Cl-].[Cl-].[Cl-].[K+].[Pt+2] [ZS, potassium trichloro(ethylene)platinate(II), reference compound]	–	–	–	8.30	–	90.83	–	–	–	–	time to quantitative conversion to the trans-aquo complex after dissolution in water ([11]; water): ≤ 2 min
N.N.[Cl][Pt][Cl] [cisplatin, reference compound]	13.9 ± 5.16	14.8 ± 1.23	29 ± 4.28	–	–	–	–	–	13.3 ± 0.87	–	metabolic activity (residual) on A2780cis [2]: 4.71%; metabolic activity (residual) on MDA-MB-231 [9]: 8.71%
C=C.NC(Cc1c[nH]cn1)C(=O)O.[Cl][Pt] [compound 3, (L-Histidinato-N,N)chlorido(η^2-ethene)platinate(II)]	> 100	–	> 100	–	–	–	–	2.392 ± 0.185	–	12.0 ± 3.0	–
C=CCCOC(=O)c1ccccc1OC(C)=O.[Cl][Pt-]([Cl])[Cl].[K+] [compound 5, potassium {trichlorido[η^2-(but-3-en-1-yl)-2-acetoxybenzoate]platinate(II)}]	–	> 50	–	39.56	63.10 ± 8.07	67.84 ± 10.57	80.49 ± 11.10	–	> 50	–	half-life in 50% methanolic solution ([11]; 50% methanolic solution, previously measured): 69.6 ± 3.0 h
C=CCCOC(=O)c1ccccc1OC(C)=O [compound 6, but-3-en-1-yl 2-acetoxybenzoate]	–	–	–	–	–	–	–	–	–	–	IC50 ([2]; A2780cis): > 50 µM; inhibition at 10 µM ([4]; 10 μM): 15.7 ± 14.8%; inhibition at 25 µM ([4]; 25 μM): 16.9 ± 17.2%; inhibition at 10 µM ([5]; 10 μM): 23.7 ± 9.86%; inhibition at 25 µM ([5]; 25 μM): 16.4 ± 8.64%; IC50 ([9]; Homo sapiens, MDA-MB-231): > 50 µM
(Ethylene,N-trans)(L-alaninato-N,O)chlorido(η^2-(but-3-en-1-yl)-2-acetoxybenzoate)platinate(II) [compound 4]	20.63 ± 0.11	22.5 ± 0.97	22.5 ± 3.23	20.04	60.50 ± 7.63	56.51 ± 0.72	65.95 ± 4.01	3.383 ± 0.016	15.4 ± 0.74	>72	metabolic activity (residual) on A2780cis [2]: 33.13%; half-life time (τ1/2) in aqueous environment, 50% methanol solution ([7]; 50% methanol solution (footnote a of Table 4), CE): >72 ^a h; release of olefin in aqueous environment ([7]; after 72 h): about 20%; solubility in water (in words) [8]: better solubility in water; metabolic activity (residual) on MDA-MB-231 [9]: 7.71%
